According to patent publication US6858607B1, “7,8-fused 4H-chromene and analogs as activators of caspases and inducers of apoptosis and the use thereof” (Cytovia, Inc., priority 2001, dated 2005):

Columns and labels:
[1] = test system: T-47D; test: Caspase cascade activation in T-47D cells (N-(Ac-DEVD)-N'-ethoxycarbonyl-R110 fluorogenic substrate); assay type: cell-based; details: T-47D human breast cancer cells, 24 h incubation; for T-47D Ratio (caspase activity): ratio of net RFU of test compound to control
Experimental: (§1) Human breast cancer cell lines T47D and ZR-75-1 were grown according to media component mixtures designated by American Type Culture Collection+10% FCS (Invitrogen Corporation), in approximately 5% CO2-95% humidity incubator at approximately 37° C. T-47D and ZR-75-1 cells were maintained at a cell density between 30 and 80% confluency at a cell density of 0.1 to 0.6×10^6 cells/mL. Cells were harvested at approximately 600×g and resuspended at approximately 0.65×10^6 cells/mL into appropriate media plus approximately 10% FCS. An aliquot of approximately 45 μl of cells was added to a well of a 96-well microtiter plate containing approximately 5 μl of a solution of approximately 10% DMSO in RPMI-1640 media solution containing approximately 0.16 to 10 μM of the test compounds (0.016 to 1 μM final). An aliquot of approximately 45 μl of cells was added to a well of a 96-well microtiter plate containing approximately 5 μl of a solution of approximately 10% DMSO in RPMI-1640 media solution without test compound as the control sample. The samples were mixed by agitation and then incubated at approximately 37° C. for approximately 24 h in approximately 5% CO2-95% humidity incubator. After incubation, the samples were removed from the incubator and approximately 50 μl of a solution containing approximately 20 μM of N-(Ac-DEVD)-N′-ethoxycarbonyl-R110 fluorogenic substrate, SEQ ID NO:1 (Cytovia, Inc.; U.S. Pat. No. 6,335,429), comprising approximately 20% sucrose (Sigma), 20 mM DTT (Sigma), 200 mM NaCl (Sigma), 40 mM Na PIPES buffer at approximate pH 7.2 (Sigma), and approximately 500 μg/ml lysolecithin (Calbiochem) was added. The samples were mixed by agitation and incubated at room temperature. Using a fluorescent plate reader (Model 1420 Wallac Instruments), an initial reading (T=0) was made approximately 1-2 min after addition of the substrate solution, employing excitation at 485 nm and emission at […], to determine the background fluorescence of the control sample. After the 3 h incubation, the samples were read for fluorescence as above (T=3 h).
(§2) The Relative Fluorescence Unit values (RFU) were used to calculate the sample readings as follows: RFU(T=3h)−Control RFU(T=0)=Net RFU(T=3h)
(§3) The activity of caspase cascade activation was determined by the ratio of the net RFU value for the test compounds to that of control samples. The EC50 (nM) was determined by a sigmoidal dose-response calculation (Prism 2.0, GraphPad Software Inc.).

[2] = test system: ZR-75-1; test: Caspase cascade activation in ZR-75-1 cells (N-(Ac-DEVD)-N'-ethoxycarbonyl-R110 fluorogenic substrate); assay type: cell-based; details: ZR-75-1 human breast cancer cells, 24 h incubation; for ZR-75-1 Ratio (caspase activity): ratio of net RFU of test compound to control; for EC50: sigmoidal dose-response
Experimental: as §1, §2, §3

Row | Molecule | EC50 ([1]; sigmoidal dose-response) [nM] | EC50 [2] [nM] | T-47D EC50 (nM) ([1]; sigmoidal dose-response) | T-47D Ratio (caspase activity) [1] | ZR-75-1 Ratio (caspase activity) [2]
1 | 2-Amino-3-cyano-4-(3-bromo-4,5-dimethoxyphenyl)-4H-triazo[4,5-h]chromene [Example 1] | > 1000 | 560 |  | 1.8 | 5.3
2 | COc1cc(C2C(C#N)=C(N)Oc3c2ccc2oc(=O)[nH]c32)cc(Br)c1OC (centres unmarked) [Example 2, 2-Amino-3-cyano-4-(3-bromo-4,5-dimethoxyphenyl)-8-oxo-4,8,9-trihydro-oxazo[5,4-h]chromene] | 567 | 366 |  | 6.4 | 8.5
3 | COc1cc(C2C(C#N)=C(N)Oc3c2ccc2oc(=O)n(C)c32)cc(Br)c1OC (centres unmarked) [Example 3, 2-Amino-3-cyano-4-(3-bromo-4,5-dimethoxyphenyl)-8-oxo-4,8-dihydro-9-methyl-oxazo[5,4-h]chromene] |  |  | Inactive | 1.5 | 2.7
4 | COc1cc(C2C(C#N)=C(N)Oc3c2ccc2[nH]c(=O)oc32)cc(Br)c1OC (centres unmarked) [Example 5, 2-Amino-3-cyano-4-(3-bromo-4,5-dimethoxyphenyl)-8-oxo-4,7,8-trihydro-oxazo[4,5-h]chromene] | 285 | 156 |  | 8.6 | 4.5

Continued by falling EC50 ([1]; sigmoidal dose-response), values first:

Row | EC50 ([1]; sigmoidal dose-response) [nM] | EC50 [2] [nM] | T-47D EC50 (nM) ([1]; sigmoidal dose-response) | Molecule | T-47D Ratio (caspase activity) [1] | ZR-75-1 Ratio (caspase activity) [2]
5 | 68.7 | 43 |  | COc1cc(C2C(C#N)=C(N)Oc3c2ccc2ncoc32)cc(Br)c1OC (centres unmarked) [Example 7, 2-Amino-3-cyano-4-(3-bromo-4,5-dimethoxyphenyl)-4H-oxazo[4,5-h]chromene] | 7.8 | 9.8
6 | 47.2 | 23 |  | COC=NC1=C(C#N)C(c2cc(Br)c(OC)c(OC)c2)c2ccc3ocnc3c2O1 (centres unmarked) [Example 4, 2-Methoxymethylimine-3-cyano-4-(3-bromo-4,5-dimethoxyphenyl)-4H-oxazo[5,4-h]chromene] | 8.1 | 7.9
7 | 35.1 | 12.9 |  | COc1cc(C2C(C#N)=C(N)Oc3c2ccc2ocnc32)cc(Br)c1OC (centres unmarked) [Example 8, 2-Amino-3-cyano-4-(3-bromo-4,5-dimethoxyphenyl)-4H-oxazo[5,4-h]chromene] | 7.9 | 7.2
8 | 11.8 |  |  | COc1cc(C2C(C#N)=C(N)Oc3c2ccc2c3oc(=O)n2C)cc(Br)c1OC (centres unmarked) [Example 6, 2-Amino-3-cyano-4-(3-bromo-4,5-dimethoxyphenyl)-8-oxo-4,8-dihydro-7-methyl-oxazo[4,5-h]chromene] | 6.5 | 
